Experimental data taken from PMC8048783, “CYP154C5 Regioselectivity in Steroid Hydroxylation Explored by Substrate Modifications and Protein Engineering” (Chembiochem, 2020).

Experiments:
CYP154C5 [1] = target: T1, CYP154C5 (Nocardia farcinica, UniProt Q5YNS8, Q398A); test: type I spectral shift titration, tight-binding fit
T1 construct: gene NFA_53110; full-length, N-terminal His-tag (pET28a(+), NdeI/HindIII), purified from E. coli C43(DE3)
Description: (§1) type I spectral shift titration, tight-binding fit on CYP154C5

CYP154C5 [2] = target: T2, CYP154C5 (Nocardia farcinica, UniProt Q5YNS8, F92A); test: type I spectral shift titration, tight-binding fit
T2 construct: gene NFA_53110; full-length, N-terminal His-tag (pET28a(+), NdeI/HindIII), purified from E. coli C43(DE3)
Description: as §1

CYP154C5 [3] = target: T3, CYP154C5 (Nocardia farcinica, UniProt Q5YNS8); test: biochemical; format: binding
T3 construct: gene NFA_53110; full-length, N-terminal His-tag (pET28a(+), NdeI/HindIII), purified from E. coli C43(DE3)

CYP154C5 [4] = target: T4, CYP154C5 (Nocardia farcinica, UniProt Q5YNS8, M84A); test: type I spectral shift titration, tight-binding fit
T4 construct: gene NFA_53110; full-length, N-terminal His-tag (pET28a(+), NdeI/HindIII), purified from E. coli C43(DE3)
Description: as §1

CYP154C5 [5] = target: T5, CYP154C5 (Nocardia farcinica, UniProt Q5YNS8, Q239A); test: type I spectral shift titration, tight-binding fit
T5 construct: gene NFA_53110; full-length, N-terminal His-tag (pET28a(+), NdeI/HindIII), purified from E. coli C43(DE3)
Description: as §1

T1 sequence (Q5YNS8 whole entry Q398A): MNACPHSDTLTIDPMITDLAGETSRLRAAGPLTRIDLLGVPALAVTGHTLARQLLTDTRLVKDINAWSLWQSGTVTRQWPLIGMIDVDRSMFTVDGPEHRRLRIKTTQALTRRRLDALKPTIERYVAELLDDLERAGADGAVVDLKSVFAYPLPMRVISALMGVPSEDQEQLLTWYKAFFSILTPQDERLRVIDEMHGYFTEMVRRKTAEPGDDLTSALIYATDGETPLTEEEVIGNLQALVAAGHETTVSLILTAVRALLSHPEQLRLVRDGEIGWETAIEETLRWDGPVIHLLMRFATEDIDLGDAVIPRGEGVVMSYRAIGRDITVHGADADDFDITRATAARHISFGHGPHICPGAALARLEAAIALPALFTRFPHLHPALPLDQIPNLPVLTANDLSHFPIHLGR
T2 sequence (Q5YNS8 whole entry F92A): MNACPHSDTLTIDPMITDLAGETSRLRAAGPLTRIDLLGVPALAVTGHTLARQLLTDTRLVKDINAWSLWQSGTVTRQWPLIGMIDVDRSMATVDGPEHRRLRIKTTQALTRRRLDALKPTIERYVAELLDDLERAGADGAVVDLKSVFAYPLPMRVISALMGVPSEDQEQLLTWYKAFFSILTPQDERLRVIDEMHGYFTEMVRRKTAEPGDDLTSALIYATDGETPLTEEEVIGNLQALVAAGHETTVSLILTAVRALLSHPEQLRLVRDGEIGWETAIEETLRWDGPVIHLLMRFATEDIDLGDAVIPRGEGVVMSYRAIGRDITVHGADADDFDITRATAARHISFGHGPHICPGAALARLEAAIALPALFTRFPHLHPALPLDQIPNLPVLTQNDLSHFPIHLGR
T3 sequence (Q5YNS8 entry or part of it): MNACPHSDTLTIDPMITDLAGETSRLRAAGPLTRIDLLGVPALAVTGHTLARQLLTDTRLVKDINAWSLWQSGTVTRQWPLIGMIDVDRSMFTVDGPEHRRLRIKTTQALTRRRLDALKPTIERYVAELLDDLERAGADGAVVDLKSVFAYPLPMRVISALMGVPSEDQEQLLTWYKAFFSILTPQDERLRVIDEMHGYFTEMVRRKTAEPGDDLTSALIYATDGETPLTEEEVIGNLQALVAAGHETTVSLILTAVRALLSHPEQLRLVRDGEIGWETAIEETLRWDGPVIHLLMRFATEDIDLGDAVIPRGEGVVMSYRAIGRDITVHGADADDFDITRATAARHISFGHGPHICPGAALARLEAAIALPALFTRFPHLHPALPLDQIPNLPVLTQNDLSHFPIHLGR
T4 sequence (Q5YNS8 whole entry M84A): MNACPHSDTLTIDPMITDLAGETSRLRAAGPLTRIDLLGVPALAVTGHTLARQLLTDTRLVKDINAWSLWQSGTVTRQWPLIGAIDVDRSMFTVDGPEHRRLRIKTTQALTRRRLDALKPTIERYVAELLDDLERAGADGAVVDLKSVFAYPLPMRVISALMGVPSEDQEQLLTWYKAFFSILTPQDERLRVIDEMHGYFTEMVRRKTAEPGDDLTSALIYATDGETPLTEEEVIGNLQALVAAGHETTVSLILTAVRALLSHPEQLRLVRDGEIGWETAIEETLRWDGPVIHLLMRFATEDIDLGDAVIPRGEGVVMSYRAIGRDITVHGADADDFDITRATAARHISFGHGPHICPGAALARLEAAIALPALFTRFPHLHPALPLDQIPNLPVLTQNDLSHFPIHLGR
T5 sequence (Q5YNS8 whole entry Q239A): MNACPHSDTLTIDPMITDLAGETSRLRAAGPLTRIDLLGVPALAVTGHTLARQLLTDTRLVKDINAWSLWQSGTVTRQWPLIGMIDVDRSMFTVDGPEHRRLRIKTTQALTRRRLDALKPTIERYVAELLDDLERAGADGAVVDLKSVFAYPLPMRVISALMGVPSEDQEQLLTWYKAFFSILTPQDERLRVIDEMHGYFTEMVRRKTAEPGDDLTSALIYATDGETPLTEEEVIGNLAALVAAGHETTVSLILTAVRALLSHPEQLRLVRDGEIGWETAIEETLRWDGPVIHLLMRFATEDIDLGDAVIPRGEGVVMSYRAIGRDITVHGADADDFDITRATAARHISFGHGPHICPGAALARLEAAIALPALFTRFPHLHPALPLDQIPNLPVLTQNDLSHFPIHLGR

SMILES | Kd (CYP154C5 [1]) [µM] | Kd (CYP154C5 [2]) [µM] | Kd (CYP154C5 [3]) [µM] | Kd (CYP154C5 [4]) [µM] | Kd (CYP154C5 [5]) [µM]
C[C@]12CC[C@H](O)CC1=CC[C@@H]1[C@@H]2CC[C@]2(C)C(=O)CC[C@@H]12 [compound 2, dehydroepiandrosterone] | 0.687 ± 0.043 | 1.02 ± 0.032 | < 0.001 | – | –
C[C@]12CCCCC1=CC[C@@H]1[C@@H]2CC[C@]2(C)C(=O)CC[C@@H]12 [compound 10, 3‐deoxydehydroepiandrosterone] | – | – | 0.094 ± 0.052 | – | –
CC(=O)[C@H]1CC[C@H]2[C@@H]3CC=C4C[C@@H](O)CC[C@]4(C)[C@H]3CC[C@]12C [compound 1, pregnenolone] | – | – | 0.062 ± 0.014 | – | –
C[C@]12CC[C@H]3[C@@H](CCC4=CC(=O)CC[C@@]43C)[C@@H]1CC[C@@H]2O [compound 5, testosterone] | 0.747 ± 0.045 | 1.48 ± 0.033 | 0.018 ± 0.01 | 5.71 ± 0.161 | –
C[C@@]12CCC[C@H]1[C@@H]1CC[C@H]3CC(=O)CC[C@]3(C)[C@H]1CC2 [compound 11, 5α‐androstan‐3‐one] | – | – | 0.02 ± 0.016 | – | –
C[C@]12CC[C@H]3[C@@H](CCC4=CC(=O)CC[C@@H]43)[C@@H]1CC[C@@H]2O [compound 6, nandrolone] | – | – | 0.1 ± 0.017 | – | 0.013 ± 0.006
C[C@]12CCC(=O)C=C1CC[C@@H]1[C@@H]2CC[C@]2(C)C(=O)CC[C@@H]12 [compound 4, androstenedione] | – | 0.512 ± 0.017 | 0.012 ± 0.007 | 3.13 ± 0.234 | –
CC(=O)[C@H]1CC[C@H]2[C@@H]3CCC4=CC(=O)CC[C@]4(C)[C@H]3CC[C@]12C [compound 3, progesterone] | 0.034 ± 0.021 | 0.209 ± 0.012 | 0.015 ± 0.01 | – | –
